Results: ChEMBL document CHEMBL3853304, “Synthesis and biological screening for cytotoxic activity of N-substituted indolines and morpholines” (Eur J Med Chem, 2016)
Calls of active or inactive are those of the source. The rule behind the calls is not given here.

Legend:
[1] = (§1) Cytotoxicity against human U2OS cells assessed as cell death at 100 uM after 24 hrs by trypan blue exclusion assay; type: functional
U2OS [2] = test: as §1; type: functional
U2OS [3] = test: Induction of apoptosis in human U2OS cells at IC50 after 24 hrs by Alexa fluor-Annexin V/DAPI staining-based epifluorescence microscopic analysis; type: functional
U2OS [4] = test: Inhibition of cell migration in human U2OS cells assessed as disturbed monolayer at IC50 measured after 10 hrs by light microscopic analysis; type: functional, cell-based
U2OS [5] = test: (§2) Cytotoxicity against human U2OS cells assessed as reduction in cell viability after 24 hrs by trypan blue exclusion assay; type: functional, cell-based
[6] = as §2; type: functional, cell-based
U2OS [7] = test: Induction of apoptosis in human U2OS cells assessed as necrotic cells at IC50 after 48 hrs by propidium iodide based epifluorescence microscopic analysis (reference value: 3 %); type: functional
U2OS [8] = test: Inhibition of cell migration in human U2OS cells at IC50 after 2 to 10 hrs by scratch migration assay; type: functional, cell-based
U2OS [9] = test: Induction of apoptosis in human U2OS cells assessed as increase in intracellular mitochondrial Ca2+ levels at IC50 by ratiometric pericam-mt based fluorescence microscopic analysis; type: functional, cell-based
U2OS [10] = test: Inhibition of cell migration in human U2OS cells assessed as detached adherent cells at IC50 measured after 10 hrs by light microscopic analysis; type: functional, cell-based
U2OS [11] = test: Induction of apoptosis in human U2OS cells assessed as necrotic cells at IC50 after 24 hrs by propidium iodide based epifluorescence microscopic analysis (reference value: 3 %); type: functional
U2OS [12] = test: Induction of apoptosis in human U2OS cells assessed as apoptotic cells at IC50 after 24 hrs by propidium iodide based epifluorescence microscopic analysis (reference value: 2 %); type: functional
U2OS [13] = test: Inhibition of cell migration in human U2OS cells at IC50 measured after 10 hrs by scratch migration assay; type: functional
U2OS [14] = test: Inhibition of cell migration in human U2OS cells at IC50 measured after 2 hrs by scratch migration assay; type: functional
[15] = Induction of apoptosis in HEK293 cells at IC50 after 24 hrs by Alexa fluor-Annexin V/DAPI staining-based epifluorescence microscopic analysis; type: cell-based; details: human, hek293, 24 h
[16] = Induction of apoptosis in HEK293 cells assessed as increase in intracellular mitochondrial Ca2+ levels at IC50 by ratiometric pericam-mt based fluorescence microscopic analysis; type: cell-based; details: human
U2OS [17] = test: Induction of apoptosis in human U2OS cells assessed as apoptotic cells at IC50 after 48 hrs by propidium iodide based epifluorescence microscopic analysis (reference value: 2 %); type: functional

Oc1ccccc1C(c1ccccc1)N1CCOCC1 (stereo unspecified)
Activity [1]: 20%

SODIUM ORTHOVANAD
Activity (U2OS [2]): 30%

Cc1ccc(C(c2cc([N+](=O)[O-])ccc2O)N2CCc3ccccc32)cc1 (stereo unspecified)
Activity (U2OS [3]): 43% | inhibition (U2OS [4]): Active | Activity (U2OS [5]): Dose-dependent effect | IC50 [6]: 74 µM | Activity (U2OS [7]): 15% | inhibition (U2OS [8]): Active | Activity (U2OS [9]): Active | inhibition (U2OS [10]): Active | Activity (U2OS [11]): 12% | Activity [1]: >90% | Activity (U2OS [12]): 17% | inhibition (INH) (U2OS [13]): 32% | inhibition (INH) (U2OS [14]): 7% | Activity [15]: 30% | Activity [16]: Toxic | Activity (U2OS [17]): 23%

C=Cc1ccc(C(c2ccccc2O)N2CCOCC2)cc1 (stereo unspecified)
Activity [1]: 20%

Oc1ccccc1C(/C=C/c1ccccc1)N1CCOCC1 (stereo unspecified)
Activity [1]: 20%

COc1ccc(C(c2ccccc2O)N2CCOCC2)cc1 (stereo unspecified)
Activity [1]: 20%

C(=C\C(c1ccccn1)N1CCOCC1)/c1ccccc1 (stereo unspecified)
Activity [1]: 20%

Cc1ccc(C(c2ccccc2O)N2CCc3ccccc32)cc1 (stereo unspecified)
Activity [1]: 20%

Oc1ccccc1C(c1ccc(Cl)cc1)N1CCOCC1 (stereo unspecified)
Activity [1]: 20%

Oc1ccccc1C(c1ccccc1)N1CCc2ccccc21 (stereo unspecified)
Activity (U2OS [5]): Active | Activity [1]: >90%
